Results: PubChem BioAssay AID248 (DTP/NCI, 2004)
Where “and” joins values, the source holds several entries; their conditions need not be identical. Identical values can stand only once. Toxic doses and inconclusive results are not listed. Rule as the data show it: active = T/C of 150% or more; inactive = T/C below 125%.

System: L1210 leukemia ip in BDF1 mice, survival T/C
Test: NCI In Vivo Anticancer Drug Screen. Data for tumor model L1210 Leukemia (intraperitoneal) in B6D2F1 (BDF1) mice
Details: endpoint: mean survival time, higher = longer survival
How it was run: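 Read-out is survival time, reported as the treated-group measurement over the vehicle-control measurement.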

[1] = dose: 100.0 mg/kg/injection, schedule: Q01DX001 (ip), vehicle: Klucel (hydroxypropylcellulose) (HPC)
[2] = dose: 100.0 mg/kg/injection, schedule: Q01DX009 (ip), vehicle: Klucel (hydroxypropylcellulose) (HPC)
[3] = dose: 100.0 mg/kg/injection, schedule: Q04DX003 (ip), vehicle: Klucel (hydroxypropylcellulose) (HPC)
[4] = dose: 200.0 mg/kg/injection, schedule: Q01DX009 (ip), vehicle: Klucel (hydroxypropylcellulose) (HPC)
[5] = dose: 200.0 mg/kg/injection, schedule: Q04DX003 (ip), vehicle: Klucel (hydroxypropylcellulose) (HPC)
[6] = dose: 400.0 mg/kg/injection, schedule: Q01DX009 (ip), vehicle: Klucel (hydroxypropylcellulose) (HPC)
[7] = dose: 100.0 mg/kg/injection, schedule: Q01DX001 (ip), vehicle: saline
[8] = dose: 200.0 mg/kg/injection, schedule: Q01DX001 (ip), vehicle: saline
[9] = dose: 400.0 mg/kg/injection, schedule: Q01DX001 (ip), vehicle: saline
[10] = dose: 100.0 mg/kg/injection, schedule: Q04DX003 (ip), vehicle: saline with Tween-80
[11] = dose: 200.0 mg/kg/injection, schedule: Q04DX003 (ip), vehicle: saline with Tween-80
[12] = dose: 400.0 mg/kg/injection, schedule: Q04DX003 (ip), vehicle: saline with Tween-80
[13] = dose: 50.0 mg/kg/injection, schedule: Q01DX001 (ip), vehicle: carboxymethylcellulose (CMC)
[14] = dose: 100.0 mg/kg/injection, schedule: Q01DX001 (ip), vehicle: carboxymethylcellulose (CMC)
[15] = dose: 100.0 mg/kg/injection, schedule: Q04DX002 (ip), vehicle: saline with Tween-80
[16] = dose: 100.0 mg/kg/injection, schedule: Q01DX009 (ip), vehicle: saline with Tween-80
[17] = dose: 200.0 mg/kg/injection, schedule: Q01DX009 (ip), vehicle: saline with Tween-80
[18] = dose: 400.0 mg/kg/injection, schedule: Q01DX009 (ip), vehicle: saline with Tween-80
[19] = dose: 50.0 mg/kg/injection, schedule: Q01DX001 (ip), vehicle: saline

Measured: T/C

CS(=O)(=O)c1nc2[nH]c(=O)[nH]c(=O)c2cc1C#N
inactive: dose: 25.0 mg/kg/injection, schedule: Q01DX001 (ip), vehicle: Klucel (hydroxypropylcellulose) (HPC) 93 % of control | dose: 50.0 mg/kg/injection, schedule: Q01DX001 (ip), vehicle: Klucel (hydroxypropylcellulose) (HPC) 98 % of control | [1] 97 % of control

CCOC(=O)OC1CC/C(=N\N=C(N)N)C1 (stereo unspecified)
inactive: dose: 15.0 mg/kg/injection, schedule: Q01DX Z (ip), vehicle: methylcellulose (MC) 110 % of control | dose: 30.0 mg/kg/injection, schedule: Q01DX Z (ip), vehicle: methylcellulose (MC) 96 % of control | dose: 120.0 mg/kg/injection, schedule: Q01DX Z (ip), vehicle: methylcellulose (MC) 92 % of control

C(=C/c1ccc(/C=C/c2ccccc2)cc1)/c1ccccc1
inactive: [2] 98 % of control | [3] 98 % of control | [4] 93 % of control | [5] 104 % of control | [6] 95 % of control | dose: 400.0 mg/kg/injection, schedule: Q04DX003 (ip), vehicle: Klucel (hydroxypropylcellulose) (HPC) 90 % of control

O=[As](O)(c1ccccc1)C1CCCCC1O (stereo unspecified)
inactive: dose: 6.25 mg/kg/injection, schedule: Q01DX001 (ip), vehicle: saline with Tween-80 97 % of control | dose: 12.5 mg/kg/injection, schedule: Q01DX001 (ip), vehicle: saline with Tween-80 98 % of control | dose: 25.0 mg/kg/injection, schedule: Q01DX001 (ip), vehicle: saline with Tween-80 111 % of control

Cc1cccc2ccc3cccc(C)c3c12
inactive: [7] 98 % of control | [8] 92 % of control | [9] 95 % of control

Cc1cc(Br)c[nH]c1=O
inactive: [10] 98 % of control | [11] 98 % of control | [12] 102 % of control

Cc1ccc(N2C(=O)CCC2=O)c(C)c1
inactive: [13] 104 % of control | [14] 98 % of control | dose: 200.0 mg/kg/injection, schedule: Q01DX001 (ip), vehicle: carboxymethylcellulose (CMC) 102 % of control | dose: 400.0 mg/kg/injection, schedule: Q01DX001 (ip), vehicle: carboxymethylcellulose (CMC) 98 % of control

Cc1ccc(S(=O)(=O)N/N=C\C(O)C(O)C(O)CO)cc1 (stereo unspecified)
inactive: [15] 97 % of control | dose: 200.0 mg/kg/injection, schedule: Q04DX002 (ip), vehicle: saline with Tween-80 94 % of control | dose: 400.0 mg/kg/injection, schedule: Q04DX002 (ip), vehicle: saline with Tween-80 97 % of control

CC1(C)CC(N)CC(C)(C)N1
inactive: [13] 107 % of control | [14] 103 % of control

CCCCCCCCCCCCCCCCCC(=O)NCCS
inactive: dose: 25.0 mg/kg/injection, schedule: Q04DX002 (ip), vehicle: saline with Tween-80 101 % of control | dose: 50.0 mg/kg/injection, schedule: Q04DX002 (ip), vehicle: saline with Tween-80 89 % of control | [15] 104 % of control

COc1ccccc1NC(=O)Nc1cccc(C(C)=O)c1
inactive: [16] 93 % of control | [10] 97 % of control | [17] 90 % of control | [11] 100 % of control | [18] 100 % of control | [12] 96 % of control

N#CCCS(=O)(=O)CCc1ccccc1
inactive: dose: 75.0 mg/kg/injection, schedule: Q01DX009 (ip), vehicle: Klucel (hydroxypropylcellulose) (HPC) 96 % of control | dose: 150.0 mg/kg/injection, schedule: Q01DX009 (ip), vehicle: Klucel (hydroxypropylcellulose) (HPC) 96 % of control | dose: 300.0 mg/kg/injection, schedule: Q01DX009 (ip), vehicle: Klucel (hydroxypropylcellulose) (HPC) 105 % of control

CCCN1CC(C(=O)OCC)C(=O)C1=O (stereo unspecified)
inactive: [19] 108 % of control | [7] 100 % of control | [8] 96 % of control | [9] 102 % of control

NC(N)=NC(N)=Nc1ccccc1
inactive: dose: 100.0 mg/kg/injection, schedule: Q04DX002 (ip), vehicle: Klucel (hydroxypropylcellulose) (HPC) 101 % of control | dose: 200.0 mg/kg/injection, schedule: Q04DX002 (ip), vehicle: Klucel (hydroxypropylcellulose) (HPC) 105 % of control | dose: 400.0 mg/kg/injection, schedule: Q04DX002 (ip), vehicle: Klucel (hydroxypropylcellulose) (HPC) 97 % of control

COC(C(C)C)[CH]1[Hg][O]C1=O (stereo unspecified)
inactive: dose: 0.5 mg/kg/injection, schedule: Q01DX001 (ip), vehicle: steriod suspending solution 103 % of control | dose: 1.0 mg/kg/injection, schedule: Q01DX001 (ip), vehicle: steriod suspending solution 108 % of control | dose: 2.0 mg/kg/injection, schedule: Q01DX001 (ip), vehicle: steriod suspending solution 111 % of control

O=C(O)CC(C(=O)O)c1ccccc1O (stereo unspecified)
inactive: dose: 25.0 mg/kg/injection, schedule: Q04DX003 (ip), vehicle: Klucel (hydroxypropylcellulose) (HPC) 95 % of control | [19] 100 % of control | dose: 50.0 mg/kg/injection, schedule: Q04DX003 (ip), vehicle: Klucel (hydroxypropylcellulose) (HPC) 93 % of control | [7] 96 % of control | [8] 90 % of control

NN1C(=O)c2ccccc2C1=O
inactive: [16] 100 % of control | [17] 95 % of control | [18] 92 % of control

Oc1ccc(C=NCC2CCCC[N-]2)c(O)c1.Oc1ccc(C=NCC2CCCC[N-]2)c(O)c1.[Ni+2] (stereo unspecified)
inactive: [10] 95 % of control | [11] 87 % of control

O=C(Nc1[nH]nc2nccnc12)C(F)(F)F
inactive: [16] 97 % of control | [10] 105 % of control | [17] 92 % of control | [11] 97 % of control | [18] 103 % of control | [12] 100 % of control

CCOC(=O)c1ccc(N2C(=O)C=CC2=O)cc1
inactive: [10] 96 % of control | [11] 98 % of control | [12] 89 % of control

O=c1oc(-c2cccc(Cl)c2)nc2cc(Cl)ccc12
inactive: [2] 104 % of control | [4] 116 % of control | [6] 115 % of control

Nc1[nH]c(=S)[nH]c(=O)c1N
inactive: dose: 12.0 mg/kg/injection, schedule: Q01DX009 (ip), vehicle: other 102 % of control | dose: 12.0 mg/kg/injection, schedule: Q04DX003 (ip), vehicle: saline 97 % of control | dose: 25.0 mg/kg/injection, schedule: Q01DX009 (ip), vehicle: other 102 % of control | dose: 25.0 mg/kg/injection, schedule: Q04DX003 (ip), vehicle: saline 104 % of control | dose: 50.0 mg/kg/injection, schedule: Q01DX009 (ip), vehicle: other 105 % of control | dose: 50.0 mg/kg/injection, schedule: Q04DX003 (ip), vehicle: saline 118 % of control | dose: 125.0 mg/kg/injection, schedule: Q01DX Z (ip), vehicle: methylcellulose (MC) 106 % of control | dose: 250.0 mg/kg/injection, schedule: Q01DX Z (ip), vehicle: methylcellulose (MC) 117 % of control

Cc1ccc(NC(=S)Nc2ccccc2)cc1
inactive: [3] 97 % of control | [5] 107 % of control

CSc1cccc[n+]1[O-]
inactive: dose: 100.0 mg/kg/injection, schedule: Q01DX009 (ip), vehicle: saline 105 % of control | dose: 100.0 mg/kg/injection, schedule: Q04DX002 (ip), vehicle: saline 103 % of control and 108 % of control | dose: 200.0 mg/kg/injection, schedule: Q01DX009 (ip), vehicle: saline 108 % of control | dose: 200.0 mg/kg/injection, schedule: Q04DX002 (ip), vehicle: saline 105 % of control | dose: 400.0 mg/kg/injection, schedule: Q01DX009 (ip), vehicle: saline 101 % of control | dose: 400.0 mg/kg/injection, schedule: Q04DX002 (ip), vehicle: saline 108 % of control and 118 % of control

Clc1ccc2c(n1)Sc1c(Cl)nc(Cl)nc1N2
inactive: [1] 95 % of control | dose: 200.0 mg/kg/injection, schedule: Q01DX001 (ip), vehicle: Klucel (hydroxypropylcellulose) (HPC) 108 % of control | dose: 400.0 mg/kg/injection, schedule: Q01DX001 (ip), vehicle: Klucel (hydroxypropylcellulose) (HPC) 93 % of control

[Br][La]([Br])[Br]
inactive: dose: 100.0 mg/kg/injection, schedule: Q04DX003 (ip), vehicle: saline 89 % of control | dose: 200.0 mg/kg/injection, schedule: Q04DX003 (ip), vehicle: saline 91 % of control | dose: 400.0 mg/kg/injection, schedule: Q04DX003 (ip), vehicle: saline 91 % of control
